# Entries after “also recorded” stand apart in the source; their conditions may differ.
# What was measured:
# [1] = tested on: chick embryos; assay: Cyclodextrin treatment of chick embryos in ovo, facial features by scanning electron microscopy; type: in vivo; details: 375 μM cyclodextrin in ovo, applied after 15 h of incubation, early-primitive-streak stage, embryonic day 5
# Protocol: (§1) Chick embryos. Methyl-β-cyclodextrin (200 μl of a 10% w/v solution in L-15 medium (Sigma and Life Technologies)) was applied to windowed, fertile chick eggs (White Leghorn) after 15 h of incubation. For an average egg volume of 50 ml, the final concentration of cyclodextrin was 375 μM. After 4 d of further incubation, we processed the embryos for scanning electron microscopy. The neural plate and epidermal ectoderm was dissected from stage 9-10 chick embryos, cultured them in collagen and induced them with purified Sonic Hh N-terminal peptide ShbN^21 as described^3. Methyl-β-cyclodextrin was added to the chick explant cultures 4 h after induction with ShhN was initiated.
# To determine how cholesterol may affect Hh signaling in embryonic development, chick embryos were exposed to cyclodextrin, a cyclic oligosaccharide that forms non-covalent complexes with sterols and can be used to extract and deplete cholesterol from living cells. […] The most severely affected embryos developed a proboscis-like structure that phenocopies the nasal rudiments of mouse embryos that are homozygous with respect to mutations in the gene Sonic hedgehog (Shh; ref. 8).
# FIG. 2a provides scanning electron micrographs of facial features at embryonic day 5 of a control (control) chick embryo and of embryos exposed to 375 μM cyclodextrin (CD). […]
# [2] = tested on: chick neural-plate explants; assay: Chick neural-plate explants induced with ShhN, stained for HNF3β or lSL1; type: cell-based
# Protocol: as §1
# It was further investigated whether SSH signaling in embryonic tissues by exposing chick neural-plate explants to recombinant Shh protein (ShhN, 30 nm) in the presence of cyclodextrin (FIG. 2b). FIG. 2b provides confocal microscope images of stage 9-10 chick embryo ectoderm dissected from a region of the neural plate intermediate to the notochord and roof plate and just rostral to Hensen's node. Explants were cultured for 48 h in collagen and stained for HNF3β or lSL1, as indicated.
# [3] = tested on: neural-crest cells; assay: BMP-induced migration of neural-crest cells from dorsal neural plate explants; type: cell-based, chick; details: 400 μM cyclodextrin alone, 48 h of culture
# Protocol: as §1
# Dorsal neural plate progenitor cells and an endogenous source of BMP, the adjacent epidermal ectoderm, were dissected from a region just rostral to Hensen's node in stage 9-10 chick embryos.
# [4] = tested on: Shh autoprocessing; assay: Analysis of Shh protein biogenesis (autoprocessing) in MEFs; type: cell-based, mouse; details: Dhcr7−/− or Sc5d−/− MEFs; transient (30 min, 3.8 mM) cyclodextrin treatment, lipid-depleted serum
# Protocol: Analysis of Shh protein biogenesis. MEFs were plated in a 10-cm^2 dish (Falcon) and transfected them (Fugene 6, Roche) with a full length Shh expression construct (pRK5-Shh, 5 μg) when the cells were roughly 75% confluent. The next day, we changed the culture medium (Dulbecco's modified Eagle medium with 10% fetal bovine serum) to contain either 0.5% fetal bovine serum, 0.5% lipid-depleted serum or lipid-depleted serum after a 30-min treatment with 3.8 mM methyl-β-cyclodextrin (Sigma). After an additional 24 h in culture, we lysed the MEFs in RIPA buffer (50 mM Tris-C1, pH 7.5, 150 mM NaCl, 1% Nonidet P-40, 0.5% sodium deoxycholate, 1 mM EDTA, 1 μg ml^−1 leupeptin, 1 μg ml aprotinin^−1, 0.2 mM phenylmethylsulfonyl fluoride), immunoprecipitated Shh protein from the cell lysates with a monoclonal antibody that recognizes the N-terminal signaling domain (5E1, Developmental Studies Hybridoma Bank) and immunoblotted them with a polyclonal antibody preparation (JH134). […]
# [5] = tested on: Hh pathway; assay: Shh signaling assay in Dhcr7 and Sc5d MEFs (Hh-responsive firefly luciferase reporter); type: cell-based, mouse
# Protocol: Shh signaling assays. Shh signaling assays were carried out as described^16 in primary fibroblasts lacking functional Dhcr7, Sc5d or Ptch and in NIH3T3 fibroblasts. Dhcr7^−/− and Dhcr7^+/− MEFs were generated from embryonic day-9 mutant mice and Sc5h1 and Sc5d^−/− and Sc5d^+/− MEFs from embryonic day-14.5 mutant mice. We generated a reporter construct with firefly luciferase and Gli (pGL3-8xGli-luciferase) by cloning eight tandem Gli-binding sites and a lens crystallin promoter from the 8xGli-BS Luc construct^22 into the pGL3-Basic vector (Promega). We determined relative Hh pathway activity in Dhcr7^−/−, Dhcr7^+/−, Sc5d^+/+ and Sc5d^+/− MEFs from the expression of transiently transfected pGL3-8xGli-luciferase and control Renilla luciferase (pRL-SV40; Promega) vectors. […]
# The effect of cholesterol depletion on responsiveness of Dhcr7^+/− (gray bars), Dhcr7^−/− (maroon bars), Sc5d^+/− (gray bars), and Sc5d^−/− (green bars) MEFs to Shh signaling was assayed by transfection with a Hh-responsive firefly luciferase reporter and treatment with purified ShhNp (10 nM). […] For each culture condition, normalized firefly luciferase activity from control and ShhNp treated cells was used to calculate the relative induction, expressed as a percentage of the Shh induction achieved in MEFs cultured in full serum. […]
# [6] = tested on: Hh pathway; assay: Shh signaling assay in NIH3T3 Shh-LIGHT Z3 cells (Gli luciferase reporter); type: cell-based
# Protocol: (§2) Shh signaling assays. Shh signaling assays were carried out as described^16 in primary fibroblasts lacking functional Dhcr7, Sc5d or Ptch and in NIH3T3 fibroblasts. Dhcr7^−/− and Dhcr7^+/− MEFs were generated from embryonic day-9 mutant mice and Sc5h1 and Sc5d^−/− and Sc5d^+/− MEFs from embryonic day-14.5 mutant mice. We generated a reporter construct with firefly luciferase and Gli (pGL3-8xGli-luciferase) by cloning eight tandem Gli-binding sites and a lens crystallin promoter from the 8xGli-BS Luc construct^22 into the pGL3-Basic vector (Promega). We determined relative Hh pathway activity in Dhcr7^−/−, Dhcr7^+/−, Sc5d^+/+ and Sc5d^+/− MEFs from the expression of transiently transfected pGL3-8xGli-luciferase and control Renilla luciferase (pRL-SV40; Promega) vectors. In Ptch^−/− MEFs, we normalized β-galactosidase activity expressed under the control of the Ptch promoter for protein levels to determine relative Hh pathway activity. In the NIH3T3 cell clone Shh-LIGHT Z3, we normalized 8xGli-BS luciferase activity for β-galactosidase activity from stably transfected vectors (8xGli-BS Luc^22 and piZ-lacZ). We established clonal sublines of Shh-LIGHT Z3 by cotransfecting either Smo tagged with Myc epitope or SmoA1 with vector encoding G418 resistance (pGT; Invivogen). All transfections were done with Fugene 6. We carried out cyclodextrin treatments for 30 min with methyl-β-cyclodextrin (Sigma) dissolved in Dulbecco's modified Eagle medium, preceded and followed by two washes with phosphate-buffered saline. Fetal bovine serum was depleted of lipids as described^23. We purchased compactin as an active sodium salt form of mevastatin (Biomol) and dissolved it in dimethylsulfoxide.
# (§3) The combination of transient cyclodextrin treatment followed by inhibition of cholesterol synthesis blocked the response to ShhNp, whereas neither treatment alone did so. FIG. 4c, Hh path way inhibition persisted for 72 h after cyclodextrin treatment. The 3-d recovery period was intended to allow replenishment of non-sterol cellular components depleted by transient cyclodextrin treatment while maintaining sterol depletion with HMG-CoA reductase inhibition by compactin. FIG. 4d, Total cellular sterols from parallel cultures of NIH3T3 (c, 36 h), Dhcr7^−/− and Sc5d^−/− (FIG. 3b) MEFs were determined by gas chromatography-mass spectrometry analysis of extracted lipids and plotted against the relative Shh pathway activity. Bars represent one standard error (quadruplicate wells).
# [7] = tested on: Hh pathway downstream of Ptch; assay: Constitutive Hh pathway activity in Ptch−/− MEFs (β-galactosidase); type: cell-based, mouse; details: transient treatment with increasing concentrations of cyclodextrin in combination with compactin
# Protocol: as §2, with “We carried out cyclodextrin treatments for 30 min with methyl-β-cyclodextrin (Sigma) dissolved in Dulbecco's modified Eagle medium, preceded and followed by two washes with phosphate-buffered saline. Fetal bovine serum was depleted of lipids as described^23. We purchased compactin as an active sodium salt form of mevastatin (Biomol) and dissolved it in dimethylsulfoxide.” left out
# [8] = biological target: T1, Smo (Mus musculus, UniProt P56726); assay: Shh pathway activation by overexpression of wild-type Smo in NIH3T3 cells; type: cell-based; details: cholesterol depletion by cyclodextrin and compactin treatments
# T1 construct: expressed in transfected cells
# Protocol: as §2, with “We carried out cyclodextrin treatments for 30 min with methyl-β-cyclodextrin (Sigma) dissolved in Dulbecco's modified Eagle medium, preceded and followed by two washes with phosphate-buffered saline. Fetal bovine serum was depleted of lipids as described^23. We purchased compactin as an active sodium salt form of mevastatin (Biomol) and dissolved it in dimethylsulfoxide.” left out
# [9] = biological target: T2, SmoA1 (Mus musculus, UniProt P56726, W539L); assay: Shh pathway activity driven by oncogenic Smo (SmoA1, W539L) in NIH3T3 cells; type: cell-based; details: cholesterol depletion by cyclodextrin and compactin treatments
# T2 construct: expressed in transfected cells
# Protocol: as §2, with “We carried out cyclodextrin treatments for 30 min with methyl-β-cyclodextrin (Sigma) dissolved in Dulbecco's modified Eagle medium, preceded and followed by two washes with phosphate-buffered saline. Fetal bovine serum was depleted of lipids as described^23. We purchased compactin as an active sodium salt form of mevastatin (Biomol) and dissolved it in dimethylsulfoxide.” left out
# [10] = tested on: Dhcr7−/− and Sc5d−/− MEFs; assay: Sterol analysis of MEFs cultured in parallel with signaling assays; type: cell-based, mouse; details: lipid-depleted serum
# Protocol: Sterol analysis. Neutral sterols were extracted and analyzed as described^24 from replicate wells of MEFs cultured in parallel with those used for signaling assays.
# as §3
# [11] = tested on: Hh pathway; assay: Response of cells to ShhNp protein under sterol-specific perturbations (data not shown); type: cell-based
# Text: Cyclodextrins form complexes with hydrophobic compounds including proteins and phospholipids in addition to sterols^6.
# [12] = 400 μM cyclodextrin, 30 nM ShhN, 48 h
# T1 sequence (P56726 33-793): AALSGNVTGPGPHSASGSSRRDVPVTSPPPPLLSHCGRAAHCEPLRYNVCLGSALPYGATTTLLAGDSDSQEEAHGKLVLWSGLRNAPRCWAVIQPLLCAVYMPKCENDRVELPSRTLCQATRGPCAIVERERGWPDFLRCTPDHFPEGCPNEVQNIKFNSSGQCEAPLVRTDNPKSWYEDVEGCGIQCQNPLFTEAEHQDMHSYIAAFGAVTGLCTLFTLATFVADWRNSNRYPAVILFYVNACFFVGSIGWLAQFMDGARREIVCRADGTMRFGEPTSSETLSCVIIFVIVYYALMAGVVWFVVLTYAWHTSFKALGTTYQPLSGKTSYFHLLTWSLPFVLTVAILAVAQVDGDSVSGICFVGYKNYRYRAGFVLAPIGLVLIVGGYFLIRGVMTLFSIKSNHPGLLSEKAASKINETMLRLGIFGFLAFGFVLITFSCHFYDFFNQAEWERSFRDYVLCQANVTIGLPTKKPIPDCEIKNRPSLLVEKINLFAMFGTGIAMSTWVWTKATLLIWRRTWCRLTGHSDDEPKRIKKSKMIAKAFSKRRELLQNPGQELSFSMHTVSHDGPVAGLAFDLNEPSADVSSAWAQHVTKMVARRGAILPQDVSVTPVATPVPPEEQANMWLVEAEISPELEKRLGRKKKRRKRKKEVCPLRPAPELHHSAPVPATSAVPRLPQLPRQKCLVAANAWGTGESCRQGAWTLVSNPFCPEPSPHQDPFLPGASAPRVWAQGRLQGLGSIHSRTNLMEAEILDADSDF
# T2 sequence (P56726 33-793 W539L): as the sequence (P56726 33-793) above, with W507L counted along it
compound,measurement,setting,value
Methyl-β-cyclodextrin,developmental malformation of facial and midline structures,[1],variable loss of midline tissues
same,developmental malformation of facial and midline structures,[1]; listed as Cyclodextrin,variable loss of the frontonasal process and other midline structures; also recorded: holoprosencephaly
same,HNF3β and lSL1 marker expression,"[2]; 200 μM cyclodextrin, 30 nM ShhN, 48 h",both HNF3μ and lSL1 were expressed
same,high-threshold response to ShhN (HNF3β),[2]; [12],blocked
same,"lSL1 expression (intermediate-threshold response, motor-neuron fate)",[2]; [12],substantially uniform expression of lSL1
same,differentiation of neural plate explant cells as motor neurons,[2]; 400 μM β-methyl CD in conjunction with 30 nM ShhN,all cells
same,cellular response to Shh protein (FIG. 2b),"[2]; cyclodextrin treatment, concentration not given in legend",inhibited the cellular response to Shh protein
same,BMP-induced migration of neural-crest cells,[3],did not inhibit
same,Shh autoprocessing,[4],no observable effect
same,ability to respond to Shh signal,"[5]; Dhcr7 and Sc5d mutant MEFs, transient 30-min cyclodextrin, lipid-depleted medium, ShhNp 10 nM",clear deficiencies in their ability to respond to Shh signal
same,response to ShhNp stimulation,"[5]; cells heterozygous for Dhcr7 and Sc5d mutations, all growth conditions incl. transient cyclodextrin",normal response
same,inhibition of Shh signal response,[6]; continuous treatment with 500 μM cyclodextrin,about 50%
same,inhibition of Shh signal response,[6]; continuous treatment with 2 mM cyclodextrin,nearly complete inhibition
same,response to Shh signaling under chronic cyclodextrin,"[6]; cyclodextrin in culture medium for the duration of ShhNp induction, comparable to 5 μM cyclopamine",dose dependent manner; also recorded: inhibited
same,"Shh signal response, transient cyclodextrin combined with continuous compactin","[6]; transient cyclodextrin before ShhNp induction, then compactin during induction",blocked; also recorded: inhibited
same,persistence of Hh pathway inhibition after cyclodextrin treatment,"[6]; transient cyclodextrin, sterol depletion maintained with compactin",72 h
same,ShhNp response after transient cyclodextrin alone,"[6]; transient treatment for 30 minutes before ShhNp, even at 15 mM cyclodextrin",did not affect response
same,constitutive Hh pathway activity in Ptch−/− fibroblasts,[7],dose-dependent reduction
same,constitutive Hh pathway activity in Ptch−/− fibroblasts,[7]; listed as Cyclodextrin,blocked
same,Shh pathway activation by overexpressed wild-type Smo,[8],inhibited
same,Shh pathway activity driven by SmoA1,[9],resistant to inhibition
same,"sterol levels after initial transient cyclodextrin treatment, needed to affect pathway response",[10],below 40 μg mg^−1 protein
CCCCC[C@@H](O)[C@H]1C(=O)O[C@H](C)[C@@H](O)/C=C/C=C/C=C/C=C/C=C(\C)[C@@H](O)C[C@H](O)C[C@H](O)C[C@H](O)C[C@H](O)C[C@H](O)C[C@@H]1O [filipin],response of cells to ShhNp protein,[11],blocked
C[C@@H]1[C@H](O)[C@@H](C)/C=C/C=C/CC/C=C/C=C/C=C/C=C/C(O[C@H]2O[C@H](C)[C@@H](O)[C@H](N)[C@@H]2O)CC2O[C@](O)(CC(O)C(O)CCC(O)CC(O)CC(O)CC(=O)O[C@H]1C)CC(O)C2C(=O)O (stereo partly shown) [nystatin],response of cells to ShhNp protein,[11],blocked
CC[C@H](C)C(=O)O[C@H]1CCC=C2C=C[C@H](C)[C@H](CC[C@@H]3C[C@@H](O)CC(=O)O3)[C@H]21 [compactin],ShhNp response under compactin alone,[6]; continuous exposure to compactin,not affected

# Source: US20070053883A1, “Neuronal cell lineages and methods of production thereof” (THE JOHNS HOPKINS UNIVERSITY, priority 2003, published 2007)
